Drawing on PubChem BioAssay (NCI), this text covers TGI and GI50 for 9 molecules.

Molecules are shown by their SMILES. “And” between values parts separate entries of the source, which are not always exact repeats. Equal values may be shown once.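 Each compound was tested at five concentrations against cells in 96-well plates for 48 hours. GI50 = concentration required for 50% inhibition of growth. TGI is the concentration that stops growth completely.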

Some test systems named below: SF-539 CNS; HT29 colon; BT-549 breast; PC-3 prostate; HS 578T breast; HOP-92 NSCLC; CAKI-1 renal; UACC-257 melanoma; SF-295 CNS; SNB-19 CNS.
Common to all, as to assay: NCI anticancer screen, dose series, 48 h

`NNS(=O)(=O)c1cc(C(=O)O)cc(C(=O)O)c1`: the TGI with SF-539 CNS, with HT29 colon, in the assay with BT-549 breast, in the assay on PC-3 prostate, with HS 578T breast and in the assay on HOP-92 NSCLC was above 100 µM each time. Further, the TGI in the assay on CAKI-1 renal, in the assay on UACC-257 melanoma, in the assay with SF-295 CNS and in the assay on SNB-19 CNS was above 100 µM in each case.

As for `O=C(Nc1ccc(Br)cc1)Nc1nn(C(=O)Nc2ccc(Br)cc2)c2ccccc12`, the GI50 with SF-539 CNS is 29.3 µM; in the assay on HT29 colon it was above 100 µM; with BT-549 breast, 34.5 µM; in the assay on PC-3 prostate, above 51.6 µM; in the assay with HS 578T breast, 13.7 µM; in the assay with HOP-92 NSCLC, 24.4 µM. In addition, the GI50 in the assay on CAKI-1 renal is 44.2 µM; with UACC-257 melanoma, above 77.6 µM; in the assay with SF-295 CNS, 18 µM; with SNB-19 CNS, 23.6 µM. Further, the TGI is above 100 µM with SF-539 CNS; above 100 µM with HT29 colon; above 93.7 µM in the assay with BT-549 breast; above 100 µM with PC-3 prostate; 55.8 µM in the assay on HS 578T breast; above 65.5 µM in the assay with HOP-92 NSCLC. Besides, the TGI in the assay on CAKI-1 renal is above 84 µM; in the assay on UACC-257 melanoma it was above 100 µM; with SF-295 CNS, 66.1 µM; in the assay with SNB-19 CNS, 81 µM.

For the molecule `Cc1cnc(Nc2ccc(OCCN3CCCC3)cc2)nc1Nc1cccc(S(=O)(=O)NC(C)(C)C)c1`, the GI50 with SF-539 CNS was 0.332 µM and 1.52 µM; in the assay with HT29 colon, 0.0973 µM and 0.564 µM; with BT-549 breast it was 1.74 µM and 2.68 µM; in the assay on PC-3 prostate, 0.383 µM and 1.55 µM; in the assay on HS 578T breast, 0.181 µM and 0.568 µM; in the assay on HOP-92 NSCLC, 0.196 µM and 0.384 µM. In addition, the GI50 with CAKI-1 renal was 1.11 µM; in the assay with UACC-257 melanoma, 1.28 µM and 3.99 µM; in the assay on SF-295 CNS, 0.304 µM and 2.57 µM; in the assay on SNB-19 CNS, 2.66 µM and 3.4 µM. The TGI in the assay with SF-539 CNS is 2.15 µM and 4.91 µM; in the assay on HT29 colon, 2.28 µM and 5.12 µM; in the assay on BT-549 breast, 4.38 µM and > 9.47 µM; in the assay with PC-3 prostate, above 51 µM; with HS 578T breast, 2.28 µM and 3.58 µM; in the assay with HOP-92 NSCLC it was 2.75 µM and 1.88 µM. For the same molecule, the TGI is 2.83 µM and > 10 µM in the assay on UACC-257 melanoma; 12.4 µM and > 10 µM in the assay with SF-295 CNS; 15.6 µM and > 10 µM in the assay on SNB-19 CNS.

As to `CCCCCCNC(=O)Oc1ccc(/C(=C(/C)Cc2ccc(OC)cc2)c2ccc(OCCN(C)C)cc2)cc1`, the GI50 is 5.01 µM in the assay with SF-539 CNS; 1.2 µM in the assay with HT29 colon; 5.11 µM in the assay on BT-549 breast; 1.66 µM with PC-3 prostate; 5.87 µM in the assay on HS 578T breast; 3.49 µM with HOP-92 NSCLC. Also, the GI50 was 5.39 µM in the assay with CAKI-1 renal, 6.42 µM in the assay with UACC-257 melanoma, 5.2 µM in the assay with SF-295 CNS and 5.6 µM in the assay on SNB-19 CNS. Further, the TGI was determined as 9.64 µM in the assay with SF-539 CNS; 4.58 µM with HT29 colon; 9.86 µM in the assay on BT-549 breast; 5.96 µM in the assay on PC-3 prostate; 12.3 µM in the assay with HS 578T breast; 7.9 µM in the assay with HOP-92 NSCLC. In addition, the TGI worked out at 9.95 µM in the assay on CAKI-1 renal, 11.9 µM in the assay on UACC-257 melanoma, 9.82 µM in the assay on SF-295 CNS and 10.4 µM in the assay on SNB-19 CNS.

In the case of `CC12CC=CCC1CCC1C2CCC2(C)C(c3ccc(=O)oc3)CCC12O` (centres undefined), the GI50 in the assay with SF-539 CNS was 0.055 µM; in the assay on HT29 colon, 0.0633 µM; with BT-549 breast, 0.04 µM; in the assay with PC-3 prostate, 0.0747 µM; in the assay with HS 578T breast, 0.0335 µM; with HOP-92 NSCLC, 0.148 µM. The GI50 in the assay on CAKI-1 renal was 0.135 µM; in the assay on UACC-257 melanoma, 0.246 µM; in the assay on SF-295 CNS, 0.0462 µM; with SNB-19 CNS, 0.295 µM. Moreover, the TGI was 0.184 µM with SF-539 CNS; 0.768 µM with HT29 colon; 0.209 µM with BT-549 breast; 0.309 µM with PC-3 prostate; 0.473 µM in the assay on HS 578T breast; 0.756 µM in the assay with HOP-92 NSCLC. The TGI amounted to 0.448 µM in the assay on CAKI-1 renal, 0.769 µM in the assay on UACC-257 melanoma, 0.25 µM in the assay with SF-295 CNS and 1.19 µM with SNB-19 CNS.

With `CC(C)(C)n1cc(-c2ccnc(NCCCNS(=O)(=O)c3ccc(Br)cc3)c2)c(-c2cccc(O)c2)n1`, the GI50 in the assay on SF-539 CNS was 1.7 µM; in the assay on HT29 colon it was 1.42 µM; with BT-549 breast, 1.5 µM; in the assay on PC-3 prostate, 1.6 µM; in the assay on HS 578T breast, 2.24 µM; with HOP-92 NSCLC, 1.56 µM. Also, the GI50 in the assay on CAKI-1 renal was 2.16 µM; with UACC-257 melanoma, 2.01 µM; with SF-295 CNS it was 1.71 µM; with SNB-19 CNS it was 2.11 µM. Moreover, the TGI was 3.17 µM in the assay with SF-539 CNS; 3.79 µM in the assay with HT29 colon; 2.98 µM in the assay with BT-549 breast; 4.08 µM in the assay on PC-3 prostate; 5.53 µM in the assay on HS 578T breast; 3.43 µM in the assay on HOP-92 NSCLC. Also, the TGI with CAKI-1 renal amounted to 5.06 µM; in the assay on UACC-257 melanoma, 4.33 µM; in the assay with SF-295 CNS it was 3.25 µM; with SNB-19 CNS, 4.37 µM.

`COc1cc2c3c(c1OC)C1(C=CC(=O)C=C1)CC3NCC2` (centres undefined): the TGI with SF-539 CNS, with HT29 colon, with BT-549 breast, with PC-3 prostate, in the assay with HS 578T breast and in the assay with HOP-92 NSCLC was above 100 µM each time. Moreover, the TGI in the assay with CAKI-1 renal, in the assay on UACC-257 melanoma, in the assay on SF-295 CNS and in the assay with SNB-19 CNS was above 100 µM each time.

Consider `CCOC(=O)Cc1csc(N=Nc2c(O)[nH]c3ccccc23)n1`, for which the TGI in the assay on SF-539 CNS, with HT29 colon, in the assay on BT-549 breast, in the assay with PC-3 prostate, in the assay with HS 578T breast and in the assay with HOP-92 NSCLC was above 100 µM throughout. Also, the TGI with CAKI-1 renal, in the assay on UACC-257 melanoma, in the assay on SF-295 CNS and in the assay with SNB-19 CNS was above 100 µM in each case.

Consider `COC(=O)c1ccc2c(c1)C(=O)c1c-2n(CCCN)c(=O)c2cc(OC)c(OC)cc12`, for which the GI50 was 17.7 µM in the assay on SF-539 CNS; 13.8 µM in the assay on HT29 colon; 17.1 µM in the assay on BT-549 breast; 8.73 µM in the assay with PC-3 prostate; 18.5 µM in the assay on HS 578T breast; 14.2 µM in the assay with HOP-92 NSCLC. The GI50 is 18.6 µM with CAKI-1 renal, 14.5 µM in the assay with UACC-257 melanoma, 17.9 µM in the assay with SF-295 CNS and 19.5 µM in the assay with SNB-19 CNS. The TGI in the assay on SF-539 CNS was 34.7 µM; in the assay with HT29 colon, 31.4 µM; in the assay with BT-549 breast, 35.4 µM; with PC-3 prostate, above 51.4 µM; in the assay on HS 578T breast, 42.1 µM; in the assay on HOP-92 NSCLC, 32.1 µM. Besides, the TGI is 37.2 µM with CAKI-1 renal, above 41.5 µM with UACC-257 melanoma, 37.3 µM in the assay with SF-295 CNS and 42.6 µM with SNB-19 CNS.
